Where two headings read alike, the source gives them in different places. Starred links: 1 amine or outer side, 2 acyl side, 3 side chain; linkers in the order of their positions; H or OH if unused. Non-standard residues stand in square brackets, D forms with d. Residues, ends and D or L forms follow the SMILES beside them. Phe(4-(4-Ac-piperazinyl)) = CC(=O)N1CCN(c2ccc(C[C@H](N)C(=O)O)cc2)CC1; Trp(4-Cl)(βS-Me) = C[C@@H](c1c[nH]c2cccc(Cl)c12)[C@H](N)C(=O)O; dPro(4R-(4-pyridylmethyl)) = O=C(O)[C@H]1C[C@@H](Cc2ccncc2)CN1; dPro(3S-(4-Br-benzyl)) = O=C(O)[C@@H]1NCC[C@@H]1Cc1ccc(Br)cc1; Trp(βS-Me,4-F) = C[C@@H](c1c[nH]c2cccc(F)c12)[C@H](N)C(=O)O; Bip(4'-COOH) = N[C@@H](Cc1ccc(-c2ccc(C(=O)O)cc2)cc1)C(=O)O; Ala(1-bicyclo(1.1.1)pentyl) = N[C@@H](CC12CC(C1)C2)C(=O)O; dPro(4R-Bzl(4-F)) = O=C(O)[C@H]1C[C@@H](Cc2ccc(F)cc2)CN1; dPro(3S-(4-F-Bn)) = O=C(O)[C@@H]1NCC[C@@H]1Cc1ccc(F)cc1; X27 = COc1ncc(-c2ccc(C[C@H](N[*:1])C(=O)[*:2])cc2)cn1; X4 = O=C([C@H]1[C@@H](Cc2ccncc2)CCN1[*:1])[*:2]; Ala(morpholin-4-yl) = N[C@@H](CN1CCOCC1)C(=O)O; Ala(piperazin-1-yl) = N[C@@H](CN1CCNCC1)C(=O)O; Ala(pyrimidin-5-yl) = N[C@@H](Cc1cncnc1)C(=O)O; Phe(4-CONH2) = NC(=O)c1ccc(C[C@H](N)C(=O)O)cc1; Phe(4-COOH) = N[C@@H](Cc1ccc(C(=O)O)cc1)C(=O)O; Pro(cis-4-F) = O=C(O)[C@@H]1C[C@H](F)CN1; Ala(4-THP) = N[C@@H](CC1CCOCC1)C(=O)O; AEF = NCCOc1ccc(C[C@H](N)C(=O)O)cc1; Dap(CONH2) = NC(=O)NC[C@H](N)C(=O)O; cisHyp = O=C(O)[C@@H]1C[C@H](O)CN1; d(αMeD) = C[C@@](N)(CC(=O)O)C(=O)O; 4Pal = N[C@@H](Cc1ccncc1)C(=O)O; αMeK = C[C@](N)(CCCCN)C(=O)O; Dab = NCC[C@H](N)C(=O)O; Dap = NC[C@H](N)C(=O)O; Aib = CC(C)(N)C(=O)O
Target: T1, IL-1β (Homo sapiens, UniProt P01584)
T1 construct: purchased BioLegend 579404
Assay: IL-6 assay in MRC5 cells: inhibition of IL-1β induced IL-6 secretion (AlphaLISA)
Format: cell-based
Conditions: inhibition of IL-1β induced IL-6 secretion in MRC5 cells, read-out: MRC5 IC50
Summary of the method: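 Compound was pre-incubated 1 h at ambient temperature with recombinant human IL-1β at 2λ EC80 before adding human lung fibroblast MRC5 cells (3000/well) in EMEM with 0.025% BSA. After overnight culture at 37 °C, 5% CO2, secreted IL-6 in conditioned medium was measured by AlphaLISA; IC50 from 4-parameter logistic fits.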

[1] = compound pre-incubated 1 hour with recombinant human IL-1β

T1 sequence (P01584 117-269): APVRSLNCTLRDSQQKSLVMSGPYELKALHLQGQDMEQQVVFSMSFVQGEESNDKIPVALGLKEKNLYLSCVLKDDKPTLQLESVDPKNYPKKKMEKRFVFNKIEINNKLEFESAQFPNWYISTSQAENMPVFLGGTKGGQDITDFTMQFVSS

SMILES	IC50 [nM]	IC50 [1] [nM]
CC(=O)NCCOc1ccc(C[C@@H]2NC(=O)[C@H]3C[C@@H](Cc4ccncc4)CN3C(=O)CNC(=O)[C@H](CCN)NC(=O)[C@H](CCC(N)=O)NC(=O)[C@H](CC3CCOCC3)NC(=O)[C@@](C)(CC(=O)O)NC(=O)[C@H](Cc3c[nH]c4ccccc34)NC(=O)[C@H](CO)NC(=O)C(C)(C)NC(=O)[C@H]([C@@H](C)c3c[nH]c4cccc(Cl)c34)NC(=O)[C@@H]3C[C@H](F)CN3C(=O)CNC(=O)[C@H](Cc3ccc(C(=O)O)cc3)NC(=O)[C@H](Cc3ccncc3)NC2=O)cc1 [Example 362] (cyclo([AEF](Ac)[4Pal][Phe(4-COOH)]G[Pro(cis-4-F)][Trp(4-Cl)(βS-Me)][Aib]SW[d(αMeD)][Ala(4-THP)]Q[Dab]G[dPro(4R-(4-pyridylmethyl))]))	0.023	
C[C@@H](c1c[nH]c2cccc(F)c12)[C@@H]1NC(=O)[C@@H]2C[C@H](F)CN2C(=O)CNC(=O)[C@H](Cc2ccc(C(=O)O)cc2)NC(=O)[C@H](Cc2ccncc2)NC(=O)[C@H](Cc2ccc(-c3ccc(C(=O)O)cc3)cc2)NC(=O)[C@H]2[C@@H](Cc3ccc(F)cc3)CCN2C(=O)CNC(=O)[C@H](CCN)NC(=O)[C@H](CCC(N)=O)NC(=O)[C@H](CN2CCNCC2)NC(=O)[C@@](C)(CC(=O)O)NC(=O)[C@H](Cc2c[nH]c3ccccc23)NC(=O)[C@H](CO)NC(=O)C(C)(C)NC1=O [Example 287] (cyclo([Bip(4'-COOH)][4Pal][Phe(4-COOH)]G[Pro(cis-4-F)][Trp(βS-Me,4-F)][Aib]SW[d(αMeD)][Ala(piperazin-1-yl)]Q[Dab]G[dPro(3S-(4-F-Bn))]))		0.011
C[C@@H](c1c[nH]c2cccc(F)c12)[C@@H]1NC(=O)[C@@H]2C[C@H](O)CN2C(=O)CNC(=O)[C@H](Cc2ccc(C(=O)O)cc2)NC(=O)[C@H](Cc2ccncc2)NC(=O)[C@H](Cc2ccc(-c3ccc(C(=O)O)cc3)cc2)NC(=O)[C@H]2C[C@@H](Cc3ccc(F)cc3)CN2C(=O)CNC(=O)[C@H](CCN)NC(=O)[C@H](CCC(N)=O)NC(=O)[C@H](Cc2cncnc2)NC(=O)C(C)(C)NC(=O)[C@H](Cc2c[nH]c3ccccc23)NC(=O)[C@H](CO)NC(=O)C(C)(C)NC1=O [Example 127] (cyclo([Bip(4'-COOH)][4Pal][Phe(4-COOH)]G[cisHyp][Trp(βS-Me,4-F)][Aib]SW[Aib][Ala(pyrimidin-5-yl)]Q[Dab]G[dPro(4R-Bzl(4-F))]))	0.013	
CC(=O)N1CCN(c2ccc(C[C@@H]3NC(=O)[C@H]4C[C@@H](Cc5ccc(F)cc5)CN4C(=O)CNC(=O)[C@H](CCN)NC(=O)[C@H](CCC(N)=O)NC(=O)[C@H](Cc4cncnc4)NC(=O)C(C)(C)NC(=O)[C@H](Cc4c[nH]c5ccccc45)NC(=O)[C@H](CO)NC(=O)C(C)(C)NC(=O)[C@H]([C@@H](C)c4c[nH]c5cccc(F)c45)NC(=O)[C@@H]4C[C@H](O)CN4C(=O)CNC(=O)[C@H](Cc4ccc(C(=O)O)cc4)NC(=O)[C@H](Cc4ccncc4)NC3=O)cc2)CC1 [Example 196] (cyclo([Phe(4-(4-Ac-piperazinyl))][4Pal][Phe(4-COOH)]G[cisHyp][Trp(βS-Me,4-F)][Aib]SW[Aib][Ala(pyrimidin-5-yl)]Q[Dab]G[dPro(4R-Bzl(4-F))]))	0.038	
C[C@@H](c1c[nH]c2cccc(F)c12)[C@@H]1NC(=O)[C@@H]2C[C@H](F)CN2C(=O)CNC(=O)[C@H](Cc2ccc(C(=O)O)cc2)NC(=O)[C@H](Cc2ccncc2)NC(=O)[C@H](Cc2ccc(-c3ccc(C(=O)O)cc3)cc2)NC(=O)[C@H]2C[C@@H](Cc3ccc(F)cc3)CN2C(=O)CNC(=O)[C@H](CCN)NC(=O)[C@H](CCC(N)=O)NC(=O)[C@H](Cc2ccncc2)NC(=O)[C@@](C)(CC(=O)O)NC(=O)[C@H](Cc2c[nH]c3ccccc23)NC(=O)[C@H](CO)NC(=O)C(C)(C)NC1=O [Example 324] (cyclo([Bip(4'-COOH)][4Pal][Phe(4-COOH)]G[Pro(cis-4-F)][Trp(βS-Me,4-F)][Aib]SW[d(αMeD)][4Pal]Q[Dab]G[dPro(4R-Bzl(4-F))]))	0.013	
CC(=O)NCCOc1ccc(C[C@@H]2NC(=O)[C@H]3C[C@@H](Cc4ccncc4)CN3C(=O)CNC(=O)[C@H](CCN)NC(=O)[C@H](CCC(N)=O)NC(=O)[C@H](CC3CCOCC3)NC(=O)[C@@](C)(CC(=O)O)NC(=O)[C@H](Cc3c[nH]c4ccccc34)NC(=O)[C@H](CO)NC(=O)C(C)(C)NC(=O)[C@H]([C@@H](C)c3c[nH]c4cccc(F)c34)NC(=O)[C@@H]3C[C@H](F)CN3C(=O)CNC(=O)[C@H](Cc3ccc(C(N)=O)cc3)NC(=O)[C@H](CC34CC(C3)C4)NC2=O)cc1 [Example 376] (cyclo([AEF](Ac)[Ala(1-bicyclo(1.1.1)pentyl)][Phe(4-CONH2)]G[Pro(cis-4-F)][Trp(βS-Me,4-F)][Aib]SW[d(αMeD)][Ala(4-THP)]Q[Dab]G[dPro(4R-(4-pyridylmethyl))]))	0.048	
COc1ncc(-c2ccc(C[C@@H]3NC(=O)[C@H]4[C@@H](Cc5ccc(F)cc5)CCN4C(=O)CNC(=O)[C@H](CCN)NC(=O)[C@H](CCC(N)=O)NC(=O)[C@H](Cc4cncnc4)NC(=O)[C@@](C)(CC(=O)O)NC(=O)[C@H](Cc4c[nH]c5ccccc45)NC(=O)[C@H](CO)NC(=O)C(C)(C)NC(=O)[C@H]([C@@H](C)c4c[nH]c5cccc(F)c45)NC(=O)[C@@H]4C[C@H](F)CN4C(=O)CNC(=O)[C@H](Cc4ccc(C(=O)O)cc4)NC(=O)[C@H](Cc4ccncc4)NC3=O)cc2)cn1 [Example 281] (cyclo([X27][4Pal][Phe(4-COOH)]G[Pro(cis-4-F)][Trp(βS-Me,4-F)][Aib]SW[d(αMeD)][Ala(pyrimidin-5-yl)]Q[Dab]G[dPro(3S-(4-F-Bn))]))		0.012
C[C@@H](c1c[nH]c2cccc(F)c12)[C@@H]1NC(=O)[C@@H]2C[C@H](F)CN2C(=O)CNC(=O)[C@H](Cc2ccc(C(=O)O)cc2)NC(=O)[C@H](CC23CC(C2)C3)NC(=O)[C@H](Cc2ccc(-c3ccc(C(=O)O)cc3)cc2)NC(=O)[C@H]2C[C@@H](Cc3ccc(F)cc3)CN2C(=O)CNC(=O)[C@H](CO)NC(=O)[C@H](CCC(N)=O)NC(=O)[C@H](CN2CCOCC2)NC(=O)[C@](C)(CCCCN)NC(=O)[C@H](Cc2c[nH]c3ccccc23)NC(=O)[C@H](CO)NC(=O)C(C)(C)NC1=O [Example 173] (cyclo([Bip(4'-COOH)][Ala(1-bicyclo(1.1.1)pentyl)][Phe(4-COOH)]G[Pro(cis-4-F)][Trp(βS-Me,4-F)][Aib]SW[αMeK][Ala(morpholin-4-yl)]QSG[dPro(4R-Bzl(4-F))]))	0.037	
C[C@@H](c1c[nH]c2cccc(F)c12)[C@@H]1NC(=O)[C@@H]2C[C@H](F)CN2C(=O)CNC(=O)[C@H](Cc2ccc(C(=O)O)cc2)NC(=O)[C@H](CC23CC(C2)C3)NC(=O)[C@H](Cc2ccc(-c3ccc(C(=O)O)cc3)cc2)NC(=O)[C@H]2C[C@@H](Cc3ccc(F)cc3)CN2C(=O)CNC(=O)[C@H](CCN)NC(=O)[C@H](CCC(N)=O)NC(=O)[C@H](CN2CCOCC2)NC(=O)[C@](C)(CCCCN)NC(=O)[C@H](Cc2c[nH]c3ccccc23)NC(=O)[C@H](CO)NC(=O)C(C)(C)NC1=O [Example 174] (cyclo([Bip(4'-COOH)][Ala(1-bicyclo(1.1.1)pentyl)][Phe(4-COOH)]G[Pro(cis-4-F)][Trp(βS-Me,4-F)][Aib]SW[αMeK][Ala(morpholin-4-yl)]Q[Dab]G[dPro(4R-Bzl(4-F))]))	0.025	
C[C@@H](c1c[nH]c2cccc(F)c12)[C@@H]1NC(=O)[C@@H]2C[C@H](F)CN2C(=O)CNC(=O)[C@H](Cc2ccc(C(=O)O)cc2)NC(=O)[C@H](Cc2ccncc2)NC(=O)[C@H](Cc2ccc(-c3ccc(C(=O)O)cc3)cc2)NC(=O)[C@H]2[C@@H](Cc3ccc(Br)cc3)CCN2C(=O)CNC(=O)[C@H](CN)NC(=O)[C@H](CCC(N)=O)NC(=O)[C@H](Cc2cncnc2)NC(=O)C(C)(C)NC(=O)[C@H](Cc2c[nH]c3ccccc23)NC(=O)[C@H](CCC(=O)O)NC(=O)C(C)(C)NC1=O [Example 150] (cyclo([Bip(4'-COOH)][4Pal][Phe(4-COOH)]G[Pro(cis-4-F)][Trp(βS-Me,4-F)][Aib]EW[Aib][Ala(pyrimidin-5-yl)]Q[Dap]G[dPro(3S-(4-Br-benzyl))]))	0.019	
CO[C@H](C)[C@@H]1NC(=O)[C@@](C)(CC(=O)O)NC(=O)[C@H](Cc2c[nH]c3ccccc23)NC(=O)[C@H](CO)NC(=O)C(C)(C)NC(=O)[C@H]([C@@H](C)c2c[nH]c3cccc(F)c23)NC(=O)[C@@H]2C[C@H](F)CN2C(=O)CNC(=O)[C@H](Cc2ccc(C(=O)O)cc2)NC(=O)[C@H](Cc2ccncc2)NC(=O)[C@H](Cc2ccc(-c3ccc(C(=O)O)cc3)cc2)NC(=O)[C@H]2[C@@H](Cc3ccncc3)CCN2C(=O)CNC(=O)[C@H](CNC(N)=O)NC(=O)[C@H](CCC(N)=O)NC1=O [Example 228] (cyclo([Bip(4'-COOH)][4Pal][Phe(4-COOH)]G[Pro(cis-4-F)][Trp(βS-Me,4-F)][Aib]SW[d(αMeD)]T(Me)Q[Dap(CONH2)]G[X4]))	0.021	
C[C@@H](c1c[nH]c2cccc(F)c12)[C@@H]1NC(=O)[C@@H]2C[C@H](F)CN2C(=O)CNC(=O)[C@H](Cc2ccc(C(=O)O)cc2)NC(=O)[C@H](CC23CC(C2)C3)NC(=O)[C@H](Cc2ccc(-c3ccc(C(=O)O)cc3)cc2)NC(=O)[C@H]2C[C@@H](Cc3ccncc3)CN2C(=O)CNC(=O)[C@H](CCN)NC(=O)[C@H](CCC(N)=O)NC(=O)[C@H](CN)NC(=O)C(C)(C)NC(=O)[C@H](Cc2c[nH]c3ccccc23)NC(=O)[C@H](CCC(=O)O)NC(=O)C(C)(C)NC1=O [Example 93] (cyclo([Bip(4'-COOH)][Ala(1-bicyclo(1.1.1)pentyl)][Phe(4-COOH)]G[Pro(cis-4-F)][Trp(βS-Me,4-F)][Aib]EW[Aib][Dap]Q[Dab]G[dPro(4R-(4-pyridylmethyl))]))	0.059	
